Test results taken from ChEMBL document CHEMBL4765420, “Design, synthesis and biological evaluation of novel HDAC inhibitors with improved pharmacokinetic profile in breast cancer” (Eur J Med Chem, 2020).
pIC50: −log10 of the molar value. Calls of active or inactive are those of the source. The rule behind the calls is not given here.

How the values were obtained:
[1] = test system: MDA-MB-231; experiment: Induction of endoplasmic reticulum stress in human MDA-MB-231 cells assessed as increase in PERK expression at 2.5 to 10 uM measured after 24 hrs by DAPI staining based immunofluorescence assay; format: functional, cell-based; settings: dose 2.5-10 µM
[2] = test system: MDA-MB-231; experiment: Induction of apoptosis in human MDA-MB-231 cells assessed as late apoptotic cells at 10 uM measured after 24 hrs by Annexin-V/propidium iodide staining based flow cytometry (reference value: 0.71 to 2.94%); format: functional
[3] = test system: MDA-MB-231; experiment: Antiproliferative activity against human MDA-MB-231 cells measured after 48 hrs by MTT assay; format: functional, cell-based; settings: MDA-MB-231, 48 h
[4] = test system: MDA-MB-231; experiment: Induction of apoptosis in human MDA-MB-231 cells measured after 24 hrs by Annexin-V/propidium iodide staining based flow cytometry; format: functional, cell-based
[5] = test system: MDA-MB-231; experiment: Induction of apoptosis in human MDA-MB-231 cells assessed as down regulation of Bcl-2 expression at 2.5 to 10 uM measured after 24 hrs by Western blot analysis; format: functional, cell-based; settings: dose 2.5-10 µM
[6] = molecular target: T1, Protein deacetylase HDAC6 (Homo sapiens, UniProt Q9UBN7); experiment: Inhibition of recombinant human His-tagged HDAC6 expressed in baculovirus infected insect cells using Ac-Leu-Gly-Lys(Ac)-AMC as substrate measured after 30 mins by fluorescence assay
T1 sequence (Q9UBN7 whole entry): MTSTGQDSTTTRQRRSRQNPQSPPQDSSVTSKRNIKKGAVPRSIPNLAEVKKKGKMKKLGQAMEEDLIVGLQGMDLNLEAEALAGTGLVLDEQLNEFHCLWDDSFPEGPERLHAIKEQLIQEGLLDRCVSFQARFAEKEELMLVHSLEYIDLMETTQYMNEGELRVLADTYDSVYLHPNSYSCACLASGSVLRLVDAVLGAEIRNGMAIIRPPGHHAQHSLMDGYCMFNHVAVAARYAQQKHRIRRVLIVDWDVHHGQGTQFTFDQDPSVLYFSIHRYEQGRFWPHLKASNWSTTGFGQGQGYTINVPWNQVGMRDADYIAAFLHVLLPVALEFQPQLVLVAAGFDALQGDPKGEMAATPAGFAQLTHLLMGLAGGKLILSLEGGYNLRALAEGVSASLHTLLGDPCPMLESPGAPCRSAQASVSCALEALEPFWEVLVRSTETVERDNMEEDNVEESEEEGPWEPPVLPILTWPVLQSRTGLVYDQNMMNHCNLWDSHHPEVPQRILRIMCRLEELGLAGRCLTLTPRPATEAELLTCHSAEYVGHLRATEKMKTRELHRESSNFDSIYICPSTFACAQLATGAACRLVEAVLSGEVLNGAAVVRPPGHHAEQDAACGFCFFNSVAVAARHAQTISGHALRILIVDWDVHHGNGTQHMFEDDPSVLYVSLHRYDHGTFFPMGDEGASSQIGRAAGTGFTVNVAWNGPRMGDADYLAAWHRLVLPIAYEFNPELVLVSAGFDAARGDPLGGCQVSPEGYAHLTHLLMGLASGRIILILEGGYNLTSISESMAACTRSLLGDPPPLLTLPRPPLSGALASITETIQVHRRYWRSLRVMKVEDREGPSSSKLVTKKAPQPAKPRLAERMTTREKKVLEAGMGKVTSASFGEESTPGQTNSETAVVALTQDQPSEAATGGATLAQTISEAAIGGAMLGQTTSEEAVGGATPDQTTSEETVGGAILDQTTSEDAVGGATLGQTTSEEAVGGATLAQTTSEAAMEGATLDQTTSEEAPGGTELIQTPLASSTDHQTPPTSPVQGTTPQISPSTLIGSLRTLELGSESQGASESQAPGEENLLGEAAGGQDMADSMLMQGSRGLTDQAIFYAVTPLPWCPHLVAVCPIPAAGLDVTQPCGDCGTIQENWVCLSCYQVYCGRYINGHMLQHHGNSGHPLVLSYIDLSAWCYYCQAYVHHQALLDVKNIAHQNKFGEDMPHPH

[7] = test system: MDA-MB-231; experiment: Inhibition of cell migration in human MDA-MB-231 cells measured after 24 hrs by phase-contrast microscopy based wound healing assay; format: functional
[8] = test system: MDA-MB-231; experiment: Induction of apoptosis in human MDA-MB-231 cells assessed as necrotic cells at 2.5 uM measured after 24 hrs by Annexin-V/propidium iodide staining based flow cytometry (reference value: 0.22 to 0.46%); format: functional
[9] = test system: MDA-MB-231; experiment: Induction of apoptosis in human MDA-MB-231 cells assessed as increase in DNA fragmentation at 2.5 to 10 uM measured after 24 hrs by Hoechst 33258 staining based immunofluorescence assay; format: functional, cell-based; settings: dose 2.5-10 µM
[10] = test system: MDA-MB-231; experiment: Induction of autophagy in human MDA-MB-231 cells assessed as increase in Beclin1 expression at 2.5 to 10 uM measured after 24 hrs by Western blot analysis; format: functional, cell-based; settings: dose 2.5-10 µM
[11] = test system: MDA-MB-231; experiment: Induction of apoptosis in human MDA-MB-231 cells assessed as viable cells at 10 uM measured after 24 hrs by Annexin-V/propidium iodide staining based flow cytometry (reference value: 95.68 to 98.38%); format: functional; settings: read-out: Activity
[12] = molecular target: Histone deacetylase 9 (Homo sapiens, UniProt Q9UKV0); experiment: Inhibition of recombinant human full-length N-terminal GST-tagged HDAC9 (1 to 1069 residues) expressed in wheat germ expression system using Ac-Leu-Gly-Lys(Tfa)-AMC as substrate measured after 30 mins by fluorescence assay
[13] = molecular target: T2, Histone deacetylase 11 (Homo sapiens, UniProt Q96DB2); experiment: Inhibition of recombinant human N-terminal His-tagged HDAC11 expressed in baculovirus infected Sf9 insect cells using Ac-Arg-His-Lys(Ac)-Lys(Ac)-AMC as substrate measured after 30 mins by fluorescence assay
T2 sequence (Q96DB2 whole entry): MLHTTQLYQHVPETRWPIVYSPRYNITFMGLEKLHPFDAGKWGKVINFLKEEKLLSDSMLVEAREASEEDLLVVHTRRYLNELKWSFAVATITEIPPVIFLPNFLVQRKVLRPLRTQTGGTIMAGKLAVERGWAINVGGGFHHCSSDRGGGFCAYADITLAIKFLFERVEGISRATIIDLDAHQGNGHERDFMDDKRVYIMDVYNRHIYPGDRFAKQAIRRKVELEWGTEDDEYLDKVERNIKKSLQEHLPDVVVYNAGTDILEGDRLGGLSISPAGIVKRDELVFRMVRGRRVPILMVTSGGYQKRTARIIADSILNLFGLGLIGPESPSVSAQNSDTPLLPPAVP

[14] = test system: MDA-MB-231; experiment: Induction of apoptosis in human MDA-MB-231 cells assessed as necrotic cells at 10 uM measured after 24 hrs by Annexin-V/propidium iodide staining based flow cytometry (reference value: 0.22 to 0.46%); format: functional

Histone deacetylase 9, sequence (Q9UKV0 whole entry, the tested form may be a part): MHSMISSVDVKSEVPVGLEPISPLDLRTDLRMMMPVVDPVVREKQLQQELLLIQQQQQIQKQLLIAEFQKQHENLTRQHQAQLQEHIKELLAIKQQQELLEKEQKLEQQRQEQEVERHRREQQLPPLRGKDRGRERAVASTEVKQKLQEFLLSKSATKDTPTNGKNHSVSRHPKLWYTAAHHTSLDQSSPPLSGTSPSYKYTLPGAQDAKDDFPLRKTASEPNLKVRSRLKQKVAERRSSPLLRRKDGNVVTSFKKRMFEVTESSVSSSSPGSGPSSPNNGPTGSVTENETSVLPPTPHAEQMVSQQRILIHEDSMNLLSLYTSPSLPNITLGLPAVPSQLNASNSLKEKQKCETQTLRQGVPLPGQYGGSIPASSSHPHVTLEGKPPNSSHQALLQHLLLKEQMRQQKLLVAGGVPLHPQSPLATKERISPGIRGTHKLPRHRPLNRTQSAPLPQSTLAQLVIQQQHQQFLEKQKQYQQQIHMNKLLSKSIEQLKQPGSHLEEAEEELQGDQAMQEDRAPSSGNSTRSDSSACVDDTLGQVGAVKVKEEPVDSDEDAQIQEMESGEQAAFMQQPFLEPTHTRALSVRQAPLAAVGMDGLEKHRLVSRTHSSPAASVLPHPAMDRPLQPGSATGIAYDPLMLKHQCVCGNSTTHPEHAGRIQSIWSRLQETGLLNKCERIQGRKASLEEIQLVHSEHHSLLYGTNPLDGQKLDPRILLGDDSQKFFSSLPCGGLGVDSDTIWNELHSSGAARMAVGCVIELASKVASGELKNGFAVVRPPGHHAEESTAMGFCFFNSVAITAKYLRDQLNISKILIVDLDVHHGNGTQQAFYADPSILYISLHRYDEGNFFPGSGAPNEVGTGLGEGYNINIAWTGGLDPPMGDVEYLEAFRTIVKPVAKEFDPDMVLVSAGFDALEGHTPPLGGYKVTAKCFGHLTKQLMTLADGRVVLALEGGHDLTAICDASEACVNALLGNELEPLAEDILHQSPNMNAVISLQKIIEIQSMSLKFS

Question: For `COc1cc(OC)c2c(N3CCS(=O)(=O)CC3)nc(-c3cc(C)c(OCCCCCC(=O)NO)c(C)c3)nc2c1`, which Activity [1] is on record?
Answer: Its Activity is “Active”.

Question: What about the Activity [2] of the same molecule?
Answer: Its Activity is 35.5%.

Question: What about the pIC50 [3] of the same molecule?
Answer: Its pIC50 is 5.82.

Question: What about the Activity [4] of the same molecule?
Answer: Its Activity is “Dose-dependent effect”.

Question: And the Activity [5]?
Answer: The Activity was “Active”.

Question: And the pIC50 [6]?
Answer: Its pIC50 is 7.26.

Question: And the inhibition [7]?
Answer: The inhibition was “Dose-dependent effect”.

Question: What about the Activity [8] of the same molecule?
Answer: The Activity was 1.05%.

Question: What about the Activity [9] of the same molecule?
Answer: Its Activity is “Active”.

Question: And the Activity [10]?
Answer: The Activity was “Active”.

Question: And the viability at 10 µM [11]?
Answer: Its viability at 10 µM is 25.6%.

Question: What about the pIC50 [12] of the same molecule?
Answer: Its pIC50 is < 6.00.

Question: What about the pIC50 [13] of the same molecule?
Answer: The pIC50 was < 6.00.

Question: And the Activity [14]?
Answer: The Activity was 0.26%.
